Data as given in patent US10072011B2, “Substituted bridged urea analogs as sirtuin modulators” (GlaxoSmithKline Intellectual Property (No.2) Limited, priority 2014, dated 2018).
Like-named read-outs stand apart in the source and are kept apart here.

Biological target: T1, SIRT1 (Homo sapiens, UniProt Q96EB6)
T1 sequence (Q96EB6 1-747): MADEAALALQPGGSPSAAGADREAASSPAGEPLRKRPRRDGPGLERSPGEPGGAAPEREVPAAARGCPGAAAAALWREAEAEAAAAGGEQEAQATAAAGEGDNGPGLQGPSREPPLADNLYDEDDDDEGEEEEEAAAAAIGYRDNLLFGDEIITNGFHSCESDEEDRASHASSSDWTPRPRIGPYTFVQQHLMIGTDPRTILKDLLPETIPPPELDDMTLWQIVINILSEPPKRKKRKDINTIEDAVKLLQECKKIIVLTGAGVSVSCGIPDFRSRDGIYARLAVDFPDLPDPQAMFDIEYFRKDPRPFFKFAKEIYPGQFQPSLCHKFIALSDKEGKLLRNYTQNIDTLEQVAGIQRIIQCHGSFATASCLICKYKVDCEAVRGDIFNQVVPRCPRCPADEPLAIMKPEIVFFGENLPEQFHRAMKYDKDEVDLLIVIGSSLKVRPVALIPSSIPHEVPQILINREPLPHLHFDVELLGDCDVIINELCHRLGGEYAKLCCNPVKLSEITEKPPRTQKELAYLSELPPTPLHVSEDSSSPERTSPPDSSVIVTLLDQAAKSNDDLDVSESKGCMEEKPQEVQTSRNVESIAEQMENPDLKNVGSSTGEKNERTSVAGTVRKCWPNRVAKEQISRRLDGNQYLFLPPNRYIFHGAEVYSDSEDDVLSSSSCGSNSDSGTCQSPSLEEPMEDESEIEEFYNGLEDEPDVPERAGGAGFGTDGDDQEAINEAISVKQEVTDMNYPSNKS
Assay: Trp mass spectrometry assay of SIRT1 activation (Ac-R-H-K-K(Ac)-W-NH2 peptide)
Assay type: biochemical
Conditions: for Emax: 25 min, read-out: TRP MAX RESP (percent maximum fold activation)
Summary of the method: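 Mass spectrometry read-out (OAADPR formed, or deacetylated Trp peptide) after a 25 min NAD-dependent deacetylation by E. coli-expressed His-SIRT1, stopped with formic acid.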

[1] = Trp peptide 0.5 μM, 120 μM βNAD+, 10 nM SIRT1, 25 min at 25° C., relative to control (100%)
[2] = Trp peptide 0.5 μM, 120 μM βNAD+, 10 nM SIRT1, 25 min at 25° C.

SMILES | Emax [1] [%] | TRP Activity (EC1.5, concentration of test compound that results in 150% activation of SIRT1) [2] | Emax [%]
C[C@@H](NC(=O)c1ccc2c(n1)N(C(=O)Nc1cc(OC[C@H](O)CO)ncn1)[C@H]1CCN2C1)C(F)(F)F [Example 189, (4S)—N5-(6-((R)-2,3-dihydroxypropoxy)pyrimidin-4-yl)-N7-((R)-1,1,1-trifluoropropan-2-yl)-3,4-dihydro-1,4-methanopyrido[2,3-b][1,4]diazepine-5,7(2H)-dicarboxamide] | > 150 | A (EC1.5<1 μM) | –
C[C@@H](NC(=O)c1ccc2c(n1)N(C(=O)Nc1ccsn1)[C@H]1CCN2C1)C(F)(F)F [Example 190, (4S)—N5-(isothiazol-3-yl)-N7-((R)-1,1,1-trifluoropropan-2-yl)-3,4-dihydro-1,4-methanopyrido[2,3-b][1,4]diazepine-5,7(2H)-dicarboxamide] | > 150 | A (EC1.5<1 μM) | –
C[C@@H](NC(=O)c1ccc2c(n1)N(C(=O)Nc1nccs1)[C@H]1CCN2C1)C(F)(F)F [Example 191, (4S)—N5-(thiazol-2-yl)-N7-((R)-1,1,1-trifluoropropan-2-yl)-3,4-dihydro-1,4-methanopyrido[2,3-b][1,4]diazepine-5,7(2H)-dicarboxamide] | > 150 | A (EC1.5<1 μM) | –
C[C@@H](NC(=O)c1ccc2c(n1)N(C(=O)Nc1cc3nc[nH]c3cn1)[C@H]1CCN2C1)C(F)(F)F [Example 192, (4S)—N5-(3H-imidazo[4,5-c]pyridin-6-yl)-N7-((R)-1,1,1-trifluoropropan-2-yl)-3,4-dihydro-1,4-methanopyrido[2,3-b][1,4]diazepine-5,7(2H)-dicarboxamide] | > 150 | A (EC1.5<1 μM) | –
C[C@@H](NC(=O)c1ccc2c(n1)N(C(=O)Nc1ccc(OC[C@H](O)CO)nn1)[C@H]1CCN2C1)C(F)(F)F [Example 193, (4S)—N5-(6-((R)-2,3-dihydroxypropoxy)pyridazin-3-yl)-N7-((R)-1,1,1-trifluoropropan-2-yl)-3,4-dihydro-1,4-methanopyrido[2,3-b][1,4]diazepine-5,7(2H)-dicarboxamide] | > 150 | A (EC1.5<1 μM) | –
C[C@@H](NC(=O)c1ccc2c(n1)N(C(=O)Nc1cnc(OC[C@H](O)CO)cn1)[C@H]1CCN2C1)C(F)(F)F [Example 194, (4S)—N5-(5-((R)-2,3-dihydroxypropoxy)pyrazin-2-yl)-N7-((R)-1,1,1-trifluoropropan-2-yl)-3,4-dihydro-1,4-methanopyrido[2,3-b][1,4]diazepine-5,7(2H)-dicarboxamide] | > 150 | A (EC1.5<1 μM) | –
O=C(NCc1nccs1)c1ccc2c(n1)N(C(=O)Nc1cc(OC[C@H](O)CO)ccn1)[C@H]1CCN2C1 [Example 195, (4S)—N5-(4-((R)-2,3-dihydroxypropoxy)pyridin-2-yl)-N7-(thiazol-2-ylmethyl)-3,4-dihydro-1,4-methanopyrido[2,3-b][1,4]diazepine-5,7(2H)-dicarboxamide] | > 150 | B (EC1.5 1-25 μM) | –
O=C(NCc1cscn1)c1ccc2c(n1)N(C(=O)Nc1cc(OC[C@H](O)CO)ccn1)[C@H]1CCN2C1 [Example 199, (4S)—N5-(4-((R)-2,3-dihydroxypropoxy)pyridin-2-yl)-N7-(thiazol-4-ylmethyl)-3,4-dihydro-1,4-methanopyrido[2,3-b][1,4]diazepine-5,7(2H)-dicarboxamide] | > 150 | B (EC1.5 1-25 μM) | –
CC(C)(CO)NC(=O)c1ccc2c(n1)N(C(=O)Nc1ccccn1)[C@H]1CCN2C1 [Example 200, (4S)—N7-(1-hydroxy-2-methylpropan-2-yl)-N5-(pyridin-2-yl)-3,4-dihydro-1,4-methanopyrido[2,3-b][1,4]diazepine-5,7(2H)-dicarboxamide] | > 150 | B (EC1.5 1-25 μM) | –
CN(C)NC(=O)c1ccc2c(n1)N(C(=O)Nc1ccccn1)[C@H]1CCN2C1 [Example 201, (4S)-7-(2,2-dimethylhydrazinecarbonyl)-N-(pyridin-2-yl)-3,4-dihydro-1,4-methanopyrido[2,3-b][1,4]diazepine-5(2H)-carboxamide] | – | B (EC1.5 1-25 μM) | > 150
CC(C)(O)CNC(=O)c1ccc2c(n1)N(C(=O)Nc1ccccn1)[C@H]1CCN2C1 [Example 202, (4S)—N7-(2-hydroxy-2-methylpropyl)-N5-(pyridin-2-yl)-3,4-dihydro-1,4-methanopyrido[2,3-b][1, 4] diazepine-5,7(2H)-dicarboxamide] | > 150 | B (EC1.5 1-25 μM) | –
C[C@@H](O)CNC(=O)c1ccc2c(n1)N(C(=O)Nc1ccccn1)[C@H]1CCN2C1 [Example 203, (4S)—N7-((R)-2-hydroxypropyl)-N5-(pyridin-2-yl)-3,4-dihydro-1,4-methanopyrido[2,3-b][1,4]diazepine-5,7(2H)-dicarboxamide] | > 150 | B (EC1.5 1-25 μM) | –
O=C(NC1CC1)c1ccc2c(n1)N(C(=O)Nc1ncccn1)[C@H]1CCN2C1 [Example 204, (4S)—N7-cyclopropyl-N5-(pyrimidin-2-yl)-3,4-dihydro-1,4-methanopyrido[2,3-b][1,4]diazepine-5,7(2H)-dicarboxamide] | > 150 | B (EC1.5 1-25 μM) | –
Cc1nc(NC(=O)N2c3nc(C(=O)NC4CC4)ccc3N3CC[C@H]2C3)ccc1F [Example 205, (4S)—N7-cyclopropyl-N5-(5-fluoro-6-methylpyridin-2-yl)-3,4-dihydro-1,4-methanopyrido[2,3-b][1,4]diazepine-5,7(2H)-dicarboxamide] | > 150 | B (EC1.5 1-25 μM) | –
O=C(NC1CCC1)c1ccc2c(n1)N(C(=O)Nc1cnccn1)[C@H]1CCN2C1 [Example 206, (4S)—N7-cyclobutyl-N5-(pyrazin-2-yl)-3,4-dihydro-1,4-methanopyrido[2,3-b][1,4]diazepine-5,7(2H)-dicarboxamide] | > 150 | B (EC1.5 1-25 μM) | –
C[C@H](NC(=O)c1ccc2c(n1)N(C(=O)Nc1ccccn1)[C@H]1CCN2C1)C(F)(F)F [Example 207, (4S)—N5-(pyridin-2-yl)-N7-((S)-1,1,1-trifluoropropan-2-yl)-3,4-dihydro-1,4-methanopyrido[2,3-b][1,4]diazepine-5,7(2H)-dicarboxamide] | > 150 | B (EC1.5 1-25 μM) | –
O=C(NC[C@@H]1CCCO1)c1ccc2c(n1)N(C(=O)Nc1ccccn1)[C@H]1CCN2C1 [Example 208, (4S)—N5-(pyridin-2-yl)-N7-(((S)-tetrahydrofuran-2-yl)methyl)-3,4-dihydro-1,4-methanopyrido[2,3-b][1,4]diazepine-5,7(2H)-dicarboxamide] | > 150 | B (EC1.5 1-25 μM) | –
CC(C)(CCO)NC(=O)c1ccc2c(n1)N(C(=O)Nc1ccccn1)[C@H]1CCN2C1 [Example 209, (4S)—N7-(4-hydroxy-2-methylbutan-2-yl)-N5-(pyridin-2-yl)-3,4-dihydro-1,4-methanopyrido[2,3-b][1, 4] diazepine-5, 7(2H)-dicarboxamide] | > 150 | B (EC1.5 1-25 μM) | –
C[C@H](O)CNC(=O)c1ccc2c(n1)N(C(=O)Nc1ccccn1)[C@H]1CCN2C1 [Example 211, (4S)—N7-((S)-2-hydroxypropyl)-N5-(pyridin-2-yl)-3,4-dihydro-1,4-methanopyrido[2,3-b][1,4]diazepine-5,7(2H)-dicarboxamide] | > 150 | B (EC1.5 1-25 μM) | –
CNC(=O)c1ccc2c(n1)N(C(=O)Nc1ccccn1)[C@H]1CCN2C1 [Example 212, (4S)—N7-methyl-N5-(pyridin-2-yl)-3,4-dihydro-1,4-methanopyrido[2,3-b][1,4]diazepine-5,7(2H)-dicarboxamide] | > 150 | B (EC1.5 1-25 μM) | –
